Measured values published in patent publication US20030176368A1, “Synthesis of epothilones, intermediates thereto and analogues thereof” (priority 2001, published 2003).
pIC50: −log10 of the molar value. Where two headings read alike, the source gives them in different places.

What was measured:
[1] = system: CCRF-CEM; assay: XTT cytotoxicity assay, CCRF-CEM cells; assay type: cell-based, human; conditions: for pIC50: Homo sapiens, CCRF-CEM
Procedure: (§1) XTT assay following 72 h inhibition. CCRF-CEM is a human T-cell acute lymphoblastic leukemia cell line. The CCRF-CEM/VBL100, CCRF-CEM/VM1, and CCRF-CEM/Taxol cell lines all overexpress P-glycoprotein and display a multidrug resistance phenotype to MDR-associated oncolytics. (Chou et al. Proc. Natl. Acad. Sci. USA 98:8113, 2001; incorporated herein by reference).
(§2) A typical experiment invovles culturing cells (e.g., CCRF-CEM) at an initial density of 2-5×10^4 cells per ml. They are maintained in a 5% CO2-humidified atmosphere at 37° C. in RPMI medium 1640 (GIBCO/BRL) containing penicillin (100 units/ml), streptomycin (100 μg/ml) (GIBCO/BRL), and 5% heat-inactivated fetal bovine serum. For cells that were grown in suspension (such as CCRF-CEM and its sublines), cytotoxicitiy is measured by using the 2,-3-bis(2-methoxy-4-nitro-5-sulfophenyl)-5 carboxanilide)-2H terazodium hydroxide (XTT)-microculture tetrazonium method in duplicate in 96-well microtiter plates. For both methods, the absorbance of each well is measured with a microplate reader (EL-340, Bio-Tek, Burlington, Vt.). Each run entails six or seven concentrations of the tested drugs. Dose-effect relationship data are analyzed with the median-effect plot.
(§3) The CCRF-CEM human T cells, acute lymphoblastic leukemic cells, its teniposide-resistant subline (CCRF-CEM/VM1) and vinblastine-resistant subline (CCRF-CEM/VBL100) are obtained from W. T. Beck (University of Illinois, Chicago, Ill.).

[2] = system: CCRF-CEM/VBL100; assay: XTT cytotoxicity assay, vinblastine-resistant CCRF-CEM/VBL100 cells; assay type: cell-based, human; conditions: Homo sapiens, CCRF-CEM
Procedure: as §1, §2, §3

[3] = system: CCRF-CEM/VM1; assay: XTT cytotoxicity assay, teniposide-resistant CCRF-CEM/VM1 cells; assay type: cell-based, human; conditions: Homo sapiens, CCRF-CEM
Procedure: as §1, §2, §3

[4] = system: CCRF-CEM/Taxol; assay: XTT cytotoxicity assay, taxol-resistant CCRF-CEM/Taxol cells; assay type: cell-based, human; conditions: for pIC50: Homo sapiens, CCRF-CEM
Procedure: as §1, §2

[5] = system: tubulin; assay: Tubulin binding: formation of microtubules in the presence of the compounds; assay type: biochemical
From the text: Indeed, the microtubule stabilizing ability closely parallels the observed cytotoxicity data.

[6] = Stability on exposure to murine plasma; assay type: in vitro ADME; conditions: as compared to dEpoB (FIG. 21)
From the text: (§4) See Chou et al. Proc. Natl. Acad. Sci. USA 98:8113, 2001, incorporated herein by reference, for details.
(§5) However, the apparently disappointing murine in vivo results should be viewed in the context of reports that dEpoB itself evidenced a degree of bioinstability in murine plasma; yet had much longer plasma half-lives in higher organisms, including humans (Chou et al. J. Proc. Natl. Acad. Sci. USA 98:8113, 2001; incorporated herein by reference). The observed discrepancy in efficacy between mice and other mammals, including humans, has been ascribed to higher esterase levels in rodents.

[7] = Stability on exposure to human plasma; assay type: in vitro ADME
From the text: as §4, §5

[8] = system: human mammary carcinoma MX-1; assay: Tumor xenograft in nude mice, 6 hr i.v. infusion; assay type: in vivo; conditions: as compared to control mice, MX-1 xenograft, listed as epothilone 490
Procedure: Athymic nude mice bearing the nu/nu gene are typically used for tumor xenografts. Outbred, Swiss-background mice were obtained from Charles River Laboratories. Male mice 8 weeks or older weighing 22 g and up were used for most experiments. The drug was administered via the tail vein for 6 hr.—i.v. infusion. Each individual mouse was confined in a perforated Falcon polypropylene tube restrainer for drug administration. Tumor volume was assessed by measuring length×width×height (or width) using a caliper. The programmable Harvard PHD2000 syringe pump (Harvard Apparatus) with multi-track was used for i.v. infusion. All animal studies were conducted in accordance with the guidelines of the National Institutes of Health “Guide for the Care and Use of Animals” and the protocol approved by the Memorial Sloan-Kettering Cancer Center's Institutional Animal Care and Use Committee. In keeping with the policy of this committee for the humane treatment of tumor-bearing animals, mice were euthanized when tumors reached ≧10% of their total body weight.
As depicted in FIGS. 14, 15, 16, and 17, Epo490 was tested in nude mice bearing human mammary carcinoma MX-1 following treatment with Epo490 or dEpoB (i.v. infusions for 6 hours). […] Tumor size and body weight were then measured using dosages of 30 mg/kg, 40 mg/kg or 50 mg/kg over 32 and 50 days.

## CC1=C/C[C@@H](/C(C)=C/c2csc(C)n2)OC(=O)C[C@H](O)C(C)(C)C(=O)[C@H](C)[C@@H](O)[C@@H](C)C\C=C\1 [Epo490, 10,11-dehydro-12,13-desoxyepothilone B]
[1]; Example 12, in words
  activity in CCRF-CEM cell lines: demonstrated activity
[1]; Example 5 Table 1, 72 h inhibition, read-out: In vitro Cytotoxicities (IC50) CCRF-CEM(C)
  pIC50: 7.60
[1]; Example 9 table, read-out: Cell Growth Inhibition (IC50) CCRF-CEM
  pIC50: 8.05
[1]; Example 11 Table 2, XTT assay following 72-h inhibition, read-out: In Vitro Cytotoxicities (IC50) CCRF-CEM
  pIC50: 7.60
[2]; Example 5 Table 1, 72 h inhibition, read-out: In vitro Cytotoxicities (IC50) C/VBL100
  pIC50: 7.04
[2]; Example 9 table, read-out: Cell Growth Inhibition (IC50) CCRF-CEM/VBL
  pIC50: 7.64
[2]; Example 11 Table 2, XTT assay following 72-h inhibition, read-out: In Vitro Cytotoxicities (IC50) CCRF-CEM/VBL100
  pIC50: 7.04
[3]; Example 5 Table 1, 72 h inhibition, read-out: In vitro Cytotoxicities (IC50) C/VM1
  pIC50: 7.46
[3]; Example 11 Table 2, XTT assay following 72-h inhibition, read-out: In Vitro Cytotoxicities (IC50) CCRF-CEM/VMI
  pIC50: 7.46
[4]; Example 12, in words
  activity in CCRF-CEM cell lines resistant to Taxol: demonstrated activity
[4]; Example 5 Table 1, 72 h inhibition, read-out: In vitro Cytotoxicities (IC50) C/Taxol
  pIC50: 7.49
[4]; Example 9 table, read-out: Cell Growth Inhibition (IC50) CCRF-CEM/taxol
  pIC50: 7.89
[4]; Example 11 Table 2, XTT assay following 72-h inhibition, read-out: In Vitro Cytotoxicities (IC50) CCRF-CEM/TAXOL
  pIC50: 7.49
[5]; Example 5 Table 1
  % Tubulin Binding: 89%
[5]; Microtubules formed in the presence of dEpoB is defined as 100%
  % Tubulin Binding: 89%
[6]
  degradation in murine plasma: faster degradation
[7]; FIG. 21 legend
  stability in human versus nude mice plasma: increased stability
[7]; after more than 3 hours of exposure in human plasma
  degradation in human plasma: no measurable degradation
[8]
  inhibitory effect on the growth of the implanted tumors: did not demonstrate a statistically significant inhibitory effect
